Measured values taken from article PMC10381533, “Inhibitory Effects of the Fungal Pigment Rubiginosin C on Hyphal and Biofilm Formation in Candida albicans and Candida auris” (Journal of Fungi, 2023).
Read-outs that look alike come from different tables or passages of the source. *1 amine or outer side, *2 acyl side, *3 side chain or, on linkers, in order; H or OH if unused. Where a SMILES comes first, the peptide text is derived from it. [ ]: non-standard residue; d: D form. The star is where a group is joined. X1 = O=C(C[C@H](N[*:1])c1ccc(O)cc1)[*:2]; dVal(3-OH) = CC(C)(O)[C@@H](N)C(=O)O; ΔIle(E) = CC/C(C)=C(/N)C(=O)O; Isovaleryl = CC(C)CC(=O)*; Agmatine = N=C(N)NCCCCN*; NMeA = CN[C@@H](C)C(=O)O; ΔVal = CC(C)=C(N)C(=O)O

Tests used:
[1] = tested on: preformed S. aureus biofilm; experiment: Dispersal effect on preformed S. aureus biofilm; type: cell-based, Staphylococcus aureus
Procedure: (§1) compounds (250–2 μg/mL) in CASO with 4% glucose broth. The inhibition of biofilm formation was evaluated by staining with 150 μL of 0.1% crystal violet (CV; Thermo Fisher) following previously established protocols. In the next step, the supernatant of the 96-well plate was discarded and the wells were rinsed once with PBS buffer. The remaining biofilms were stained at room temperature for 15 min, rinsed three times with PBS buffer, and finally dissolved in 150 μL ethanol (95%). The absorbance of the resulting solution at 530 nm was quantified using a plate reader (Synergy 2, BioTek). Methanol (2.5%) and microporenic acid A (MAA) (250–2 μg/mL) were used as negative and positive controls. Standard deviations (SD) of two repeats with duplicates were 10% or less. […]
(§2) Table S2: Selected azaphilones were tested against the formation of biofilm of S. aureus, P. aeruginosa as well as C. auris and dispersal effect on preformed biofilm of S. aureus compared to solvent control (= 0%), respectively. SDs are shown as ±SD.
(§3) Compounds Strains Concentrations [µg/mL] […]

[2] = tested on: Staphylococcus aureus (DSM 1104) biofilm; experiment: Crystal violet biofilm inhibition assay, S. aureus; type: cell-based
Procedure: Selected azaphilones Rub C and W, Rut A and B were tested against the formation of biofilms in Staphylococcus aureus (DSM 1104). S. aureus DSM 1104 from a −20 °C stock was precultured in 25 mL CASO (casein-peptone soymeal-peptone) medium in a 250 mL flask at 37 °C with 100 rpm for 20 h. The OD600 of the culture solution was adjusted to 0.001 McFarland standard and incubated in 96-well microtiter plates (TPP tissue culture ref.no 92196, Switzerland) for 18 h at 37 °C with 150 μL of serially diluted test […]
as §1
μg/mL) were used as negative control and positive control, respectively. The assay was conducted for […]
as §2, §3

[3] = tested on: mouse fibroblasts L929 [ACC 2]; experiment: MTT cytotoxicity assay, L929; type: cell-based
Procedure: (§4) Cytotoxic effects were evaluated on human endocervical adenocarcinoma KB-3-1 [ACC 158] cells and mouse fibroblasts L929 [ACC 2] upon treatment with Rub C, W, and Rut A and B within the concentration range of 37 μg/mL–0.63 ng/mL. The half-maximum inhibitory concentrations (IC50) were determined by standard MTT assays as reported previously (see the Supplementary Material for detailed information). The IC50 values of Rub A and Z have currently been reported. […]
(§5) KB-3-1 (ACC 158) cervix carcinoma as well as L929 (ACC 2) mouse fibroblasts were cultured under standard cell culture conditions (37 °C, 5% CO2, 95% humidified atmosphere). The cells were maintained in high glucose DMEM containing 10% fetal bovine serum and 100 U/mL penicillin and streptomycin (Gibco, Thermo Fisher Scientific, Waltham, USA). Cell lines were serially passaged after trypsinization, using 0.05% trypsin / 0.02% EDTA solution. The cultures were routinely monitored for potential contamination, and only mycoplasma free cultures were used. The test compounds were investigated for their anti-proliferative effect on cell lines, using the 3-(4,5-dimethylthiazol-2-yl)-2,5-diphenyltetrazolium bromide (MTT) based cell viability assay. Cells were seeded in 96 well microtiter plates (Sarstedt, Germany) with a cell density of 0.05 * 10^6 cells per mL and 100 μL per well and were incubated for 24 h. […]
(§6) Absorbances at 570 nm and 630 nm were measured with a plate reader (Tecan, Männedorf, canton of Zürich, Switzerland). Background absorbance (630 nm) was subtracted from the formazan signal (570 nm). The resulting absorbance is directly proportional to the amount of viable cells. The control was normalized to 100% viable cells, and the viability of cells treated with the test compounds was calculated accordingly. IC50 values were calculated based on a sigmoidal fit model using GraphPad Prism. Means and SD were calculated from at least four independent experiments. […]

[4] = tested on: mouse fibroblasts L929 [ACC 2]; conditions: second value of the cell; cited from earlier work
[5] = tested on: human endocervical adenocarcinoma KB-3-1 [ACC 158] cells; experiment: MTT cytotoxicity assay, KB-3-1; type: cell-based; conditions: KB 3-1
Procedure: as §4, §5, §6

[6] = tested on: human endocervical adenocarcinoma KB-3-1 [ACC 158] cells; conditions: second value of the cell; cited from earlier work
[7] = tested on: Pseudomonas aeruginosa (PA 14) DSM 19882 biofilm; experiment: Crystal violet biofilm inhibition assay, P. aeruginosa; type: cell-based; conditions: assay conducted once
Procedure: Selected azaphilones Rub C and W, Rut A and B were tested against the formation of biofilms in Pseudomonas aeruginosa (PA 14) DSM 19882. Bacterial strain was precultured in 25 mL LB medium (Luria - Bertani Broth) with a 250 mL flask at 37 °C with shaking 100 rpm overnight. The turbidity of the baterial solution was measured and diluted to match the turbidity of a 0.1 McFarland standard in M63 medium, which is supplemented with magnesium sulfate, glucose and casamino acids as previously described. The compounds were added into 150 μL bacterial solution at the concentration (250–2 μg/mL) then the solution was added in U-bottom 96 well plate (Falcon ref.no 351177, Thermo Fisher Scientific). The plates were incubated at 37 °C at 150 rpm for 24 h and biofilms were established at the air liquid interface. The plates were rinsed once by using PBS buffer, the biofilms were stained by 150 μL 0.1% CV at room temperature for 15 min and then rinsed two times by using PBS buffer. The absorbance was quantified with the plate reader (Synergy 2, BioTek) at 550 nm using ethanol (95%). Methanol (2.5 %) and myxovalargin A (250 –2 μg/mL) were used as negative control and positive control, respectively. The assay was conducted for […]
as §2, §3

**Q.** Which results are given for `CC(C)=CCC/C(C)=C/CC/C(C)=C/CC/C(C)=C/CO[C@@H](C(=O)O)[C@H](CC(=O)O)C(=O)O` [MAA, microporenic acid A, reference compound]?
**A.** dispersal effect on preformed biofilm of S. aureus compared to solvent control (= 0%) ([1]; 15.6 µg/mL): 33 ±10%; dispersal effect on preformed biofilm of S. aureus compared to solvent control (= 0%) ([1]; 31.3 µg/mL): 54 ±6%; dispersal effect on preformed biofilm of S. aureus compared to solvent control (= 0%) ([1]; 62.5 µg/mL): 60 ±9%; dispersal effect on preformed biofilm of S. aureus compared to solvent control (= 0%) ([1]; 125 µg/mL): 65 ±7%; dispersal effect on preformed biofilm of S. aureus compared to solvent control (= 0%) ([1]; 250 µg/mL): 65 ±4%; inhibition of S. aureus biofilm formation compared to solvent control (= 0%) ([2]; 2 µg/mL): / ((/) no activity); inhibition of S. aureus biofilm formation compared to solvent control (= 0%) ([2]; 3.9 µg/mL): 45 ±10%; inhibition of S. aureus biofilm formation compared to solvent control (= 0%) ([2]; 7.8 µg/mL): 77 ±10%; inhibition of S. aureus biofilm formation compared to solvent control (= 0%) ([2]; 15.6 µg/mL): 83 ±6%; inhibition of S. aureus biofilm formation compared to solvent control (= 0%) ([2]; 31.3 µg/mL): 86 ±4%; inhibition of S. aureus biofilm formation compared to solvent control (= 0%) ([2]; 62.5 µg/mL): 86 ±4%; inhibition of S. aureus biofilm formation compared to solvent control (= 0%) ([2]; 125 µg/mL): 85 ±5%; inhibition of S. aureus biofilm formation compared to solvent control (= 0%) ([2]; 250 µg/mL): 83 ±6%

**Q.** Which results are given for `C/C(=C\c1csc(C)n1)[C@@H]1C[C@@H]2O[C@]2(C)CCC[C@H](C)[C@H](O)[C@@H](C)C(=O)C(C)(C)[C@@H](O)CC(=O)O1` [Epothilone B, reference compound]?
**A.** IC50 [3]: 0.17 nM; IC50 [4]: 0.031 nM; IC50 [5]: 0.053 nM; IC50 [6]: 0.028 nM

**Q.** For `CC/C(C)=C(/NC(=O)[C@H](NC(=O)[C@H](NC(=O)[C@@H](CCCN=C(N)N)NC(=O)C(NC(=O)[C@@H](NC(=O)C[C@H](NC(=O)[C@H](NC(=O)[C@H](NC(=O)[C@H](C)N(C)C(=O)[C@H](C)NC(=O)C(NC(=O)CC(C)C)=C(C)C)C(C)C)C(C)C)c1ccc(O)cc1)C(C)C)=C(C)C)C(C)C)C(C)C)C(=O)N[C@H](C)C(=O)N[C@@H](C(=O)NCCCCN=C(N)N)C(C)(C)O` [Myxovalargin A, myxovalargin A, reference compound] (Isovaleryl-[ΔVal]A[NMeA][dV][dV][X1]V[ΔVal][dR][dV][dV][ΔIle(E)][dA][dVal(3-OH)]-Agmatine), which “inhibition of P. aeruginosa biofilm formation compared to solvent control (= 0%)” value ([7]; 2 µg/mL) is on record?
**A.** / ((/) no activity)

**Q.** And the “inhibition of P. aeruginosa biofilm formation compared to solvent control (= 0%)” value ([7]; 3.9 µg/mL)?
**A.** / ((/) no activity)

**Q.** What about the “inhibition of P. aeruginosa biofilm formation compared to solvent control (= 0%)” value ([7]; 7.8 µg/mL) of the same molecule?
**A.** / ((/) no activity)

**Q.** And the “inhibition of P. aeruginosa biofilm formation compared to solvent control (= 0%)” value ([7]; 15.6 µg/mL)?
**A.** / ((/) no activity)

**Q.** What about the “inhibition of P. aeruginosa biofilm formation compared to solvent control (= 0%)” value ([7]; 31.3 µg/mL) of the same molecule?
**A.** 61%

**Q.** And the “inhibition of P. aeruginosa biofilm formation compared to solvent control (= 0%)” value ([7]; 62.5 µg/mL)?
**A.** 59%

**Q.** And the “inhibition of P. aeruginosa biofilm formation compared to solvent control (= 0%)” value ([7]; 125 µg/mL)?
**A.** 65%

**Q.** And the “inhibition of P. aeruginosa biofilm formation compared to solvent control (= 0%)” value ([7]; 250 µg/mL)?
**A.** 55%
